Laboratory results published in US11103474B2, “Pharmaceutical parenteral formulation containing carglumic acid” (RECORDATI INDUSTRIA CHIMICA E FARMACEUTICA S.P.A., priority 2016, dated 2021).

Experiment: Preliminary solubility trials (stability of carglumic acid solutions with NaOH, phosphate or HCl)
Assay type: physicochemical
From the text: Preliminary solubility trials have been performed using carglumic acid solutions buffered at pH from 5.0 to 5.7 with NaOH (0.5 M) or phosphate; the test were not successful since the solutions were not stable and gave an unknown degradation product (with molecular ion at 159 [m+H]+ detected in HPLC-mass-spectrometry) not present in the solution of carglumic acid in water.

NC(=O)N[C@@H](CCC(=O)O)C(=O)O [carglumic acid, Carglumic acid]
stability of solution (buffered at pH from 5.0 to 5.7 with NaOH (0.5 M) or phosphate, unknown degradation product formed): not stable | stability of solution (in HCl 0.5 M, up to 24 hours, two known impurities above the accepted limits): did not result stable
